From paper PMC2679375 (Journal of medicinal chemistry, 2008)

What was measured:
[1] = in vivo; settings: rat, po
[2] = biological target: cIAP-2 (Homo sapiens, UniProt Q13489); experiment: FP-based competitive binding assay for cIAP-2; settings: relative to compound 2
[3] = biological target: XIAP BIR3 (Homo sapiens, UniProt P98170); experiment: Competitive fluorescence polarization-based XIAP binding assay; settings: relative to compound 2
[4] = Aqueous solubility; type: physicochemical
[5] = test system: MDA-MB-231 cancer cell line; settings: within 24-hour treatment

Sequence of XIAP BIR3 (P98170 241-356 limits assumed): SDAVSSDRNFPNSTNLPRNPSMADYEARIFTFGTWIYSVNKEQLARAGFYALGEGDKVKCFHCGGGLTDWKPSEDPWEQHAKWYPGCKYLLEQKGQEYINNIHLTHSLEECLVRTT
Sequence of cIAP-2 (Q13489 whole entry): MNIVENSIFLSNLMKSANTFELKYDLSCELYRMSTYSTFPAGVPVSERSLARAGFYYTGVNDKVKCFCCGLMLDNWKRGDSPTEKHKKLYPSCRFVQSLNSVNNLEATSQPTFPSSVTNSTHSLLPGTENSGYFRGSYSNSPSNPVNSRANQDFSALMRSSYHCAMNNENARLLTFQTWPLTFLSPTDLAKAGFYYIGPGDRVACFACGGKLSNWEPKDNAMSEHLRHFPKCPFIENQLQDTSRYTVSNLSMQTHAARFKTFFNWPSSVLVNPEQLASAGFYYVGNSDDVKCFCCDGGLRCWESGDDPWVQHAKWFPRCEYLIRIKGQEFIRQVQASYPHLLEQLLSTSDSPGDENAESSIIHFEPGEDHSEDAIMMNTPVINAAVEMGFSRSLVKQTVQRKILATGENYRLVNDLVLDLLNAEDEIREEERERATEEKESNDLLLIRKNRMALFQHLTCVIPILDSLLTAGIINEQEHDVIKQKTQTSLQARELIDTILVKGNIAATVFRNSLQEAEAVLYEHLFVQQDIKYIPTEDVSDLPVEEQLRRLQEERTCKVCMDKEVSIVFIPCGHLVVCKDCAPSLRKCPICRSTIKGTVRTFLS

SMILES	times weaker than 2 in binding to cIAP-2 [2]	times weaker than compound 2 in binding to XIAP BIR3 [3]	also measured
CN[C@@H](C)C(=O)N[C@H]1CCCC[C@H]2CC[C@@H](C(=O)NC(c3ccccc3)c3ccccc3)N2C1=O [Compound 1]			AUC(0-inf) ([1]; 25 mg/kg): 482 ± 92 ng·h/mL
CN[C@@H](C)C(=O)N[C@H]1CN(C)CC[C@H]2CC[C@@H](C(=O)NC(c3ccccc3)c3ccccc3)N2C1=O [Compound 3, (5S,8S,10aR)-N-benzhydryl-3-methyl-5-((S)-2-(methylamino)propanamido)-6-oxodeca-hydro pyrrolo[1,2-a][1,5]diazocine-8-carbox-amide]	2-3 times	4-17 times	
CN[C@@H](C)C(=O)N[C@H]1CN(Cc2ccccc2)CC[C@H]2CC[C@@H](C(=O)NC(c3ccccc3)c3ccccc3)N2C1=O [Compound 4, (5S,8S,10aR)-N-benzhydryl-3-benzyl-5-((S)-2-(methylamino)propanamido)-6-oxodeca-hydropyrrolo[1,2-a][1,5]diazocine-8-carbox-amide]	2-3 times	4-17 times	
CN[C@@H](C)C(=O)N[C@H]1CN(C(=O)Cc2ccccc2)CC[C@H]2CC[C@@H](C(=O)NC(c3ccccc3)c3ccccc3)N2C1=O [Compound 6, (5S,8S,10aR)-N-Benzhydryl-5-((S)-2-(methyl-amino)propanamido)-6-oxo-3-(2-phenyl-acetyl)decahydro pyrrolo[1,2-a][1,5]diazo-cine-8-carboxamide]			AUC(0-inf) ([1]; 30 mg/kg): 1980 ± 614 ng·h/mL; aqueous solubility (in words) [4]: excellent aqueous solubility; concentration that effectively induces apoptosis [5]: 100 nM
